Reference: ChEMBL document CHEMBL1201862, “PubChem BioAssay data set” (2004)
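96-well plates; 48 h exposure; 5 concentrations. Endpoints by linear interpolation between flanking doses. Not reached: highest tested concentration assigned. GI50: concentration for 50% inhibition of growth.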 Activity calls are given as the source filed them. Rule as the data show it: active = GI50 up to about 1.1 µM and inactive = higher.

Legend:
Assay in all cases: inhibition of tumour cell growth, NCI panel, 48 h
[1] = test system: SN12C
[2] = test system: SK-MEL-2
[3] = test system: SW-620
[4] = test system: MCF7
[5] = test system: COLO 205
[6] = test system: HOP-92
[7] = test system: Malme-3M
[8] = test system: BT-549
[9] = test system: NCI-H23
[10] = test system: SF-539
[11] = test system: MDA-MB-231
[12] = test system: OVCAR-3
[13] = test system: K562
[14] = test system: M14
[15] = test system: UO-31
[16] = test system: SK-MEL-5
[17] = test system: HL-60
[18] = test system: HCC 2998
[19] = test system: NCI-H226

## Oc1c(Cl)cc(CN(Cc2cc(Cl)c(O)c(Cl)c2)C2CCCCC2)cc1Cl
[1]
  GI50: > 100 µM (inactive)
[2]
  GI50: > 100 µM (inactive)
[3]
  GI50: > 100 µM (inactive)
[4]
  GI50: > 100 µM (inactive)
[5]
  GI50: > 100 µM (inactive)
[6]
  GI50: > 100 µM (inactive)
[7]
  GI50: > 100 µM (inactive)
[8]
  GI50: > 100 µM (inactive)
[9]
  GI50: > 100 µM (inactive)
[10]
  GI50: > 100 µM (inactive)
[11]
  GI50: > 100 µM (inactive)
[12]
  GI50: > 100 µM (inactive)
[13]
  GI50: > 100 µM (inactive)
[14]
  GI50: > 100 µM (inactive)
[15]
  GI50: > 100 µM (inactive)
[16]
  GI50: > 100 µM (inactive)

## CCOC(=O)N1CCC2(CC1)C[C@](C)(C(C)=O)C(C)O2 (some centres not stated)
[2]
  GI50: > 100 µM (inactive)
[3]
  GI50: > 100 µM (inactive)
[4]
  GI50: > 100 µM (inactive)
[5]
  GI50: > 100 µM (inactive)
[6]
  GI50: > 100 µM (inactive)
[7]
  GI50: > 100 µM (inactive)
[17]
  GI50: 2.81 µM (inactive)
[9]
  GI50: > 100 µM (inactive)
[10]
  GI50: > 100 µM (inactive)
[11]
  GI50: > 100 µM (inactive)
[12]
  GI50: > 100 µM (inactive)
[13]
  GI50: > 100 µM (inactive)
[14]
  GI50: > 100 µM (inactive)
[15]
  GI50: > 100 µM (inactive)
[18]
  GI50: > 100 µM (inactive)
[16]
  GI50: > 100 µM (inactive)
[19]
  GI50: > 100 µM (inactive)

## O=[N+]([O-])c1ccc(Cl)cc1C1ON=C(c2ccccc2)N1C12CC3CC(CC(C3)C1)C2 (configuration not stated)
[1]
  GI50: > 100 µM (inactive)
[2]
  GI50: > 100 µM (inactive)
[4]
  GI50: > 100 µM (inactive)
[5]
  GI50: > 100 µM (inactive)
[6]
  GI50: > 100 µM (inactive)
[7]
  GI50: 49.4 µM (inactive)
[17]
  GI50: 73.6 µM (inactive)
[9]
  GI50: > 100 µM (inactive)
[10]
  GI50: > 100 µM (inactive)
[11]
  GI50: > 100 µM (inactive)
[12]
  GI50: 97.7 µM (inactive)
[13]
  GI50: > 100 µM (inactive)
[14]
  GI50: > 100 µM (inactive)
[15]
  GI50: > 100 µM (inactive)
[18]
  GI50: > 100 µM (inactive)
[16]
  GI50: > 100 µM (inactive)
[19]
  GI50: 64.3 µM (inactive)

## O=S(=O)(c1ccc(/N=C2\NC(c3ccc(O)cc3)(c3ccccc3O)c3ccccc32)cc1)c1ccc(/N=C2/NC(c3ccc(O)cc3)(c3ccccc3O)c3ccccc32)cc1 (configuration not stated)
[1]
  GI50: 3.78 µM (inactive)
[2]
  GI50: 3.73 µM (inactive)
[4]
  GI50: 3.95 µM (inactive)
[5]
  GI50: 3.56 µM (inactive)
[6]
  GI50: 3.91 µM (inactive)
[7]
  GI50: 2.32 µM (inactive)
[17]
  GI50: 1.02 µM (active)
[9]
  GI50: 2.62 µM (inactive)
[10]
  GI50: 2.75 µM (inactive)
[12]
  GI50: 4.74 µM (inactive)
[13]
  GI50: 3.52 µM (inactive)
[14]
  GI50: 3.87 µM (inactive)
[15]
  GI50: 21.5 µM (inactive)
[18]
  GI50: 4.63 µM (inactive)
[16]
  GI50: 4.46 µM (inactive)
[19]
  GI50: 2.5 µM (inactive)

## NC(=O)CN(CC(N)=O)C(N)=O
[2]
  GI50: > 100 µM (inactive)
[3]
  GI50: > 100 µM (inactive)
[5]
  GI50: > 100 µM (inactive)
[6]
  GI50: > 100 µM (inactive)
[7]
  GI50: > 100 µM (inactive)
[17]
  GI50: > 100 µM (inactive)
[9]
  GI50: > 100 µM (inactive)
[10]
  GI50: > 100 µM (inactive)
[12]
  GI50: > 100 µM (inactive)
[13]
  GI50: > 100 µM (inactive)
[14]
  GI50: > 100 µM (inactive)
[15]
  GI50: > 100 µM (inactive)
[16]
  GI50: > 100 µM (inactive)
[19]
  GI50: > 100 µM (inactive)

## CN(C)c1ccc(/C=N/NC2=N/C(=C\c3ccco3)C(=O)N2)cc1
[1]
  GI50: > 100 µM (inactive)
[2]
  GI50: > 100 µM (inactive)
[3]
  GI50: > 100 µM (inactive)
[5]
  GI50: > 100 µM (inactive)
[6]
  GI50: > 100 µM (inactive)
[7]
  GI50: > 100 µM (inactive)
[17]
  GI50: > 100 µM (inactive)
[8]
  GI50: > 100 µM (inactive)
[9]
  GI50: > 100 µM (inactive)
[10]
  GI50: > 100 µM (inactive)
[11]
  GI50: > 100 µM (inactive)
[12]
  GI50: > 100 µM (inactive)
[13]
  GI50: > 100 µM (inactive)
[14]
  GI50: > 100 µM (inactive)
[15]
  GI50: > 100 µM (inactive)
[16]
  GI50: > 100 µM (inactive)
[19]
  GI50: > 100 µM (inactive)

## O=C(Cn1c(=O)ccn(C2OC(CO)C(O)C2F)c1=O)c1ccc(F)cc1 (configuration not stated)
[1]
  GI50: > 100 µM (inactive)
[3]
  GI50: > 100 µM (inactive)
[4]
  GI50: > 100 µM (inactive)
[5]
  GI50: > 100 µM (inactive)
[7]
  GI50: > 100 µM (inactive)
[17]
  GI50: > 100 µM (inactive)
[9]
  GI50: > 100 µM (inactive)
[10]
  GI50: > 100 µM (inactive)
[11]
  GI50: > 100 µM (inactive)
[12]
  GI50: > 100 µM (inactive)
[13]
  GI50: > 100 µM (inactive)
[15]
  GI50: > 100 µM (inactive)
[16]
  GI50: > 100 µM (inactive)
[19]
  GI50: > 100 µM (inactive)

## COC(=O)C1(NC(=O)C(CC(=O)OCc2ccccc2)NC(=O)OCc2ccccc2)CCCCCC1 (configuration not stated)
[3]
  GI50: 42.8 µM (inactive)
[4]
  GI50: 33 µM (inactive)
[5]
  GI50: 21.1 µM (inactive)
[6]
  GI50: 36.6 µM (inactive)
[7]
  GI50: 24.1 µM (inactive)
[17]
  GI50: 17.7 µM (inactive)
[8]
  GI50: 17.4 µM (inactive)
[9]
  GI50: 41.8 µM (inactive)
[10]
  GI50: 23.1 µM (inactive)
[11]
  GI50: 32.4 µM (inactive)
[12]
  GI50: 26.1 µM (inactive)
[13]
  GI50: 23.2 µM (inactive)
[14]
  GI50: > 100 µM (inactive)
[15]
  GI50: 35.1 µM (inactive)
[16]
  GI50: 15.4 µM (inactive)
[19]
  GI50: 29.4 µM (inactive)
